According to patent US7423182B2, “Aminated polyamines” (University of Florida, priority 2004, dated 2008):
Where two headings read alike, the source gives them in different places.

Assays:
L1210 cells = assay: L1210 cell growth inhibition; format: cell-based; conditions: Mus musculus
[1] = tested on: Polyamine pools in L1210 cells; assay: Effect on polyamine pools in L1210 cells; format: cell-based; conditions: 48 h of treatment
[2] = mice, three weeks after a seven day schedule; cited from earlier work
[3] = tested on: Polyamine pools in L1210 cells; conditions: 48 h of treatment, cited from earlier work

## CCNCCCNCCC(N)CNCCCNCC (stereo not shown) [6-NH2-DESPM, 6 amino-N^1,N^12-diethylspermine]
L1210 cells; 48 h, read-out: IC50 48 h
  IC50: 8 µM
L1210 cells; 96 h, read-out: IC50 96 h
  IC50: 0.4 µM
[1]; 10 µM
  PUT: 39 ± 9% of untreated controls
  SPD: 16 ± 3% of untreated controls
  SPM: 54 ± 11% of untreated controls
[1]; 50 µM
  PUT: 26 ± 1% of untreated controls
  SPD: 7 ± 0% of untreated controls
  SPM: 32 ± 1% of untreated controls

## CCNCCCCNCCCCNCCCCNCC [DEHSPM, Diethylhomospermine]
[2]
  drug administered remaining in the liver and kidney as drug or metabolites: 35%
  drug remaining in the animal in the form of HSPM: 90%

## CCNCCCNCCCCNCCCNCC [DESPM]
[3]; 30 µM
  PUT: 0% of untreated controls
  SPD: 0% of untreated controls
  SPM: 12% of untreated controls
[3]; 150 µM
  PUT: 0% of untreated controls
  SPD: 0% of untreated controls
  SPM: 14% of untreated controls

## FC(F)(F)CNCCCNCCCCNCCCNCC(F)(F)F [FDESPM]
[3]; 100 µM
  PUT: 100% of untreated controls
  SPD: 103% of untreated controls
  SPM: 108% of untreated controls
